Source: US7399763B2, “8-hydroxy-1-oxo-tetrahydropyrrolopyrazine compounds useful as HIV integrase inhibitors” (Merck & Co., Inc., priority 2002, dated 2008)

Test system: HIV
Experiment: Assay for inhibition of HIV replication (acute HIV infection of T-lymphoid cells)
Format: cell-based
Conditions: Human immunodeficiency virus 1, per Vacca et al. 1994
Experimental: Assay for Inhibition of HIV Replication
Assays for the inhibition of acute HIV infection of T-lymphoid cells were conducted in accordance with Vacca, J. P. et al., Proc. Natl. Acad. Sci. USA 1994, 91: 4096.

| Structure (SMILES) | IC95 |
| --- | --- |
| CCOC(=O)c1cn2c(c1O)C(=O)N(Cc1ccccc1)CC2 [Example 1, Ethyl 2-benzyl-8-hydroxy-1-oxo-1,2,3,4-tetrahydropyrrolo[1,2-α]pyrazine-7-carboxylate] | ≤ 20 µM |
| CCOC(=O)c1cn2c(c1O)C(=O)N(Cc1ccc(F)cc1)CC2 [Example 3, Ethyl 2-(4-fluorobenzyl)-8-hydroxy-1-oxo-1,2,3,4-tetrahydropyrrolo[1,2-]pyrazine-7-carboxylate] | ≤ 20 µM |
| CNC(=O)c1cn2c(c1O)C(=O)N(Cc1ccc(F)cc1)CC2 [Example 5, 2-(4-Fluorobenzyl)-8-hydroxy-N-methyl-1-oxo-1,2,3,4-tetrahydropyrrolo[1,2α]pyrazine-7-carboxamide] | ≤ 20 µM |
| CCNC(=O)c1cn2c(c1O)C(=O)N(Cc1ccc(F)cc1)CC2 [Example 6] | ≤ 20 µM |
| O=C(NC1CC1)c1cn2c(c1O)C(=O)N(Cc1ccc(F)cc1)CC2 [Example 7, 2-(4Fluorobenzyl)-8-hydroxy-N-cyclopropyl-1-oxo-1,2,3,4-tetrahydropyrrolo[1,2α]pyrazine-7-carboxamide] | ≤ 20 µM |
| CCOC(=O)c1cn2c(c1O)C(=O)N(Cc1cccc(Cl)c1)CC2 [Example 8, Ethyl 2(3-chlorobenzyl)-8-hydroxy-1-oxo-1,2,3,4-tetrahydropyrrolo[1,2-α]pyrazine-7-carboxylate] | ≤ 20 µM |
| CN1CCn2cc(C(=O)NCc3ccc(F)cc3)c(O)c2C1=O [Example 10, N-(4-Fluorobenzyl)-8-hydroxy-2-methyl-1-oxo-1,2,3,4-tetrahydropyrrolo[1,2-α]pyrazine-7-carboxamide] | ≤ 20 µM |
| CNC(=O)c1cn2c(c1O)C(=O)N(Cc1ccc(Cl)cc1)CC2 [Example 16, 2-(4-Chlorobenzyl)-8-hydroxy-N-methyl-1-oxo-1,2,3,4-tetrahydropyrrolo[1,2-α]pyrazine-7-carboxamide] | ≤ 20 µM |
| CNC(=O)c1cn2c(c1O)C(=O)N(Cc1ccc(F)c(F)c1)CC2 [Example 17, 2-(3,4-Difluorobenzyl)-8-hydroxy-N-methyl-1-oxo-1,2,3,4-tetrahydropyrrolo[1,2-α]pyrazine-7-carboxamide] | ≤ 20 µM |
